Key:
[1] = test system: EGF receptor (EGFR); details: Kumamoto T. et al., Cancer Lett. 2009; cited from earlier work
[2] = test system: Jak1; details: Kumamoto T. et al., Cancer Lett. 2009; cited from earlier work
[3] = test system: CD4-positive T cells derived from the mutant mouse; assay: Cytokine-dependent cell proliferation activity (WST-8 assay); type: cell-based; details: cytokine/PMA-stimulated, 48 hours culture, Jak inhibitor I 3-100 nM, Jak3 inhibitor I 125-500 μM
Method: Cytokine-dependent cell proliferation activity was measured as described below. Single cells of the thymus in suspension were cultured at a density of 5×10^5 cells/well, and stimulated with PMA (10 ng/ml) [IL-2 (25 ng/ml), IL-4 (25 ng/ml), IL-6 (100 ng/ml), IL-7 (25 ng/ml), IL-12 (1-100 ng/ml) or IFN-γ (100 ng/ml) (Peprotech and R&D) was added]. Used in some experiments was the pan-Jak inhibitor Jak inhibitor I (3-100 nM, pyridone 6; Calbiochem) or Jak3 inhibitor I (125-500 μM, WHI-P131; Calbiochem). The cells were cultured for 48 hours, and their proliferation was measured by an assay using WST-8 (Nacalai Tesque) and soluble tetrazolium/formazan.

[4] = test system: ear skins of mutant mice; assay: Petrolatum coating of ear skin of mutant mice, development of dermatitis; type: in vivo, mouse; details: Jak inhibitor added to petrolatum
Method: (§1) A mouse model of atopic dermatitis was generated according to a detailed protocol reported [Masuya et al., Hum Mol Genet. 16, 2366-2375 (2007); http://www.brc.riken.jp/lab/gsc/mouse/]. C57BL/6J mice and C3H/HeJ mice were purchased from CLEA Japan. C57BL/6-kit^W-sh/W-sh mice were obtained from the RIKEN BioResource Center. C57BL/6-RAG1^−/− mice were allowed to propagate spontaneously. Severity scores were determined using an improved version of a reported scale [Matsuda et al., Int Immunol. 9, 461-466 (1997)]. The mice were reared in an SPF (specific pathogen-free) environment and subjected to experiments in compliance with the guidelines with the approval of RIKEN's Animal Experiment Committee.
To determine whether the destruction of the skin permeability barrier causes the development of dermatitis in the mutant mice, their ear skins were coated with petrolatum alone three times a week for 4 to 16 weeks.

[5] = test system: ear skins of mutant mice; assay: Topical application of Jak inhibitor to ear skin of mutant mice, development of dermatitis; type: in vivo, mouse
Method: as §1
(§2) Jak inhibitor I (150 μM, pyridone 6; Calbiochem) in suspension in acetone/olive oil (4:1), 10 μl, was topically applied to the ventral and dorsal parts of the ear skin of each mutant mouse three times a week, starting at 4 weeks after birth.
The above-described Example has shown that dermatitis in the mutant mice is caused by excess activation of Jak1 and resulting defect of the skin barrier. To verify this hypothesis, a Jak inhibitor was coated on the ear skins of mutant mice at 4 weeks after birth and their litter mates. To allow the inhibitor to deeply penetrate the epidermal layer, a combination of acetone and olive oil was used as the solvent for the inhibitor. In fact, this solvent itself was harmful to the formation of the epidermal barrier; the development of dermatitis in the mutant mice was promoted by administering this solvent.

[6] = test system: pY-Jak1 and Ki67 in the ear skins of the mutant mice; assay: Histoimmunological staining of differentiation marker molecules in ear skin after Jak inhibitor; type: in vivo, mouse; details: mutant mice treated with Jak inhibitor for 2 weeks from Week 4 of age
Method: as §2
For analysis by immunofluorescence, frozen ear tissue specimens were fixed and stained using an antibody against pY-Jak1 (Cell Signaling), an antibody against Ki67 (Abcam), and an antibody against K6, K14 or K10 (Covance). Next, samples were incubated with an FITC- or Cy3-conjugated goat anti-rabbit IgG secondary antibody (Zymed). The slides were further counter-stained with hematoxylin or DAPI (Vector Laboratories).
Since some differentiation marker molecules were abnormally expressed in the epidermal layer, how the expression of those differentiation marker molecules changed with inhibition of Jak1 activity with a Jak inhibitor in mutant mice was examined by histoimmunological staining (FIG. 5c). By inhibiting Jak1 activity, the expression of pY-Jak1 and the expression of Ki67 in the ear skins of the mutant mice could be reduced. In contrast, in the mice receiving the solvent alone, Jak1 and Ki67 were activated in excess. […] In the ear skins of mice treated with acetone-olive oil alone, all markers were expressed at higher levels than in the skins of non-treated mice.

Row | Structure (SMILES) | self-phosphorylation of EGF receptor (EGFR) [1] | phosphorylation of Jak1 [2] | inhibition of accentuated (excess) proliferation of lymphocytes [3] | inhibition of accentuated (excess) proliferation of lymphocytes ([3]; listed as Jak 3 inhibitor I) | inhibition of accentuated (excess) proliferation of lymphocytes ([3]; listed as Jak inhibitor I) | additive effect on suppression of development of the illness [4] | delay of development of dermatitis compared with solvent alone ([5]; 150 μM in acetone/olive oil, 10 μl topically on ear skin three times a week from 4 weeks after birth) | clinical symptoms compared with solvent alone ([5]; 150 μM in acetone/olive oil, topical on ear skin three times a week from 4 weeks after birth) | development of dermatitis (in words) ([5]; Jak inhibitor applied to the skin, FIG. 5) | progression of the illness after development of dermatitis ([5]; coating with the Jak inhibitor on ear skin) | expression of Ki67 in ear skin [6] | expression of pY-Jak1 in ear skin [6]
1 | O=c1c(O)c(-c2cc(O)c(O)c(O)c2)oc2cc(O)cc(O)c12 [myricetin, 3,3′,4′,5,5′,7-hexahydroxyflavone] | increase | inhibit | – | – | – | – | – | – | – | – | – | –
2 | COc1cc2ncnc(Nc3ccc(O)cc3)c2cc1OC [WHI-P131] | – | – | not | lack of proliferation inhibition | – | – | – | – | – | – | – | –
3 | CC(C)(C)c1nc2c3cc[nH]c(=O)c3c3cc(F)ccc3c2[nH]1 [pyridone 6] | – | – | dose-dependently inhibited | – | inhibited dose-dependently | no additive effect | 1 week | less severe clinical symptoms | suppressed | suppressed the progression of the illness | reduced | reduced

Reference: US20120034226A1, “DIAGNOSTIC METHOD OF SKIN INFLAMMATORY DISEASE” (RIKEN, priority 2009, published 2012)
